# From patent US20250197393A1, “INTEGRIN INHIBITOR AND USES THEREOF” (Pliant Therapeutics, Inc., priority 2023, published 2025)
# Structures can show the parent of a compound that is named as a salt.
# How the values were obtained:
# Format in all cases: physicochemical
# [1] = Water activity experiments in MeOH/water (relative stability of hydrate Pattern A and hydrate Pattern B); conditions: methanol/water
# Experimental: The relative stability of the hydrate Pattern A and the hydrate Pattern B was investigated using water activity experiments in MeOH/water systems. About 5 mg of (S)-4-((2-methoxyethyl)(4-(5,6,7,8-tetrahydro-1,8-naphthyridin-2-yl)butyl)amino)-2-(quinazolin-4-ylamino)butanoic acid L-tartaric acid cocrystal Pattern A and 5 mg of (S)-4-((2-methoxyethyl)(4-(5,6,7,8-tetrahydro-1,8-naphthyridin-2-yl)butyl)amino)-2-(quinazolin-4-ylamino)butanoic acid L-tartaric acid cocrystal Pattern B were added to 0.1-0.5 mL saturated solutions of the methanol/water system. Obtained suspensions were stirred at 5° C., 25° C. and 50° C. for up to 21 days, respectively. Solid parts (wet cakes) were isolated by centrifugation filtration and investigated by XRPD.
# [2] = Equilibration of Pattern C suspension in IPA/water at 5° C.; conditions: IPA/water mixture, equilibration at 5° C., after 3 days
# Experimental: Method 2: (S)-4-((2-methoxyethyl)(4-(5,6,7,8-tetrahydro-1,8-naphthyridin-2-yl)butyl)amino)-2-(quinazolin-4-ylamino)butanoic acid L-tartaric acid cocrystal Pattern C was prepared using the following procedure. 200 mg of (S)-4-((2-methoxyethyl)(4-(5,6,7,8-tetrahydro-1,8-naphthyridin-2-yl)butyl)amino)-2-(quinazolin-4-ylamino)butanoic acid L-tartaric acid cocrystal Pattern A (see Example 1) was dissolved in 1.8 mL of IPA/water (7:3, v:v) at 50° C. The obtained thin suspension was filtered through a 0.45 μm syringe membrane filter to obtain a clear solution. The clear solution was cooled to 5° C. at 0.1° C./min after stirring at 50° C. for about 30 min. After stirred at 5° C. for about 2 days, a suspension was obtained. Solids were collected by centrifugation and investigated by XRPD. A low crystallinity Pattern C was obtained.
# The suspension was kept stirring at 5° C. for another 3 days. Solids were collected by centrifugation and investigated by XRPD. A low crystalline Pattern B was obtained.
# [3] = Solubility at 37° C. in aqueous and biorelevant media; conditions: for Solubility (mg/ mL) 2 h / Solubility (mg/ mL) 24 h: target 250 mg/mL (in free form)
# Experimental: To prepare the samples of (S)-4-((2-methoxyethyl)(4-(5,6,7,8-tetrahydro-1,8-naphthyridin-2-yl)butyl)amino)-2-(quinazolin-4-ylamino)butanoic acid L-tartaric acid cocrystal Pattern A, 80.6 mg was weighed into a 2 mL glass vial. Next, 0.18 mL of solubility medium was added. The salt amount used is equivalent to 45 mg of the amorphous free form. Obtained suspensions/solutions were stirred at 37° C. at 400 rpm and sampled at 2 h and at 24 h. The samples were centrifuged at 37° C. at 14,000 rpm for 5 min. Supernatants were analyzed by HPLC and pH meter for solubility and pH value, respectively. […]
# [4] = Bulk stability of solid under temperature/humidity stress (HPLC, appearance, XRPD); conditions: for Bulk appearance (color change / deliquescence): Solid state, open container, 1 week
# [5] = as above
# Experimental: Bulk stability of (S)-4-((2-methoxyethyl)(4-(5,6,7,8-tetrahydro-1,8-naphthyridin-2-yl)butyl)amino)-2-(quinazolin-4-ylamino)butanoic acid L-tartaric acid cocrystal Pattern A was evaluated at 25° C./92.5% RH in an open container, at 40° C./75% RH in an open container, and at 60° C. in a closed container over 1 week and 4 weeks.
# However, it became deliquescent after being stressed at 25° C./92.5% RH in an open container and at 40° C./75% RH in an open container after 1 week.
# [6] = pH 4.5 acetate buffer (50 mM), 37° C.
# [7] = pH 6.8 phosphate buffer (50 mM), 37° C.
# [8] = Solid state, 60° C., closed container, 1 week
structure (smiles),measurement,setting,value
"COCCN(CCCCc1ccc2c(n1)NCCC2)CC[C@H](Nc1ncnc2ccccc12)C(=O)O [Pattern B, (S)-4-((2-methoxyethyl)(4-(5,6,7,8-tetrahydro-1,8-naphthyridin-2-yl)butyl)amino)-2-(quinazolin-4-ylamino)butanoic acid]",water activity (a.w.) at which the pattern was obtained,[1]; 5° C.,1.0
same,water activity (a.w.) at which the pattern was obtained,[1]; 25° C.,1.0
"COCCN(CCCCc1ccc2c(n1)NCCC2)CC[C@H](Nc1ncnc2ccccc12)C(=O)O [Pattern C, (S)-4-((2-methoxyethyl)(4-(5,6,7,8-tetrahydro-1,8-naphthyridin-2-yl)butyl)amino)-2-(quinazolin-4-ylamino)butanoic acid]",form conversion,[2],converts to Pattern B
"COCCN(CCCCc1ccc2c(n1)NCCC2)CC[C@H](Nc1ncnc2ccccc12)C(=O)O [Phosphate salt, hydrate, (S)-4-((2-methoxyethyl)(4-(5,6,7,8-tetrahydro-1,8-naphthyridin-2-yl)butyl)amino)-2-(quinazolin-4-ylamino)butanoic acid, reference compound]",pH of supernatant at 24 h,"[3]; FaSSGF, pH 1.6, 37° C.",(5.8)
same,Solubility (mg/ mL) 2 h,"[3]; FaSSGF, pH 1.6, 37° C.",>247 mg/mL
same,Solubility (mg/ mL) 24 h,"[3]; FaSSGF, pH 1.6, 37° C.",>247 mg/mL
same,pH of supernatant at 24 h,"[3]; FaSSIF-v1, pH 6.5, 37° C.",(5.9)
same,Solubility (mg/ mL) 2 h,"[3]; FaSSIF-v1, pH 6.5, 37° C.",>213 mg/mL
same,Solubility (mg/ mL) 24 h,"[3]; FaSSIF-v1, pH 6.5, 37° C.",>214 mg/mL
same,pH of supernatant at 24 h,"[3]; FeSSIF-v1, pH 5.0, 37° C.",(5.8)
same,Solubility (mg/ mL) 2 h,"[3]; FeSSIF-v1, pH 5.0, 37° C.",>214 mg/mL
same,Solubility (mg/ mL) 24 h,"[3]; FeSSIF-v1, pH 5.0, 37° C.",>218 mg/mL
same,pH of supernatant at 24 h,"[3]; Water, 37° C.",(5.8)
same,Solubility (mg/ mL) 2 h,"[3]; Water, 37° C.",>247 mg/mL
same,Solubility (mg/ mL) 24 h,"[3]; Water, 37° C.",>247 mg/mL
same,pH of supernatant at 24 h,"[3]; pH 1.2 HCl buffer, 37° C.",(1.6)
same,Solubility (mg/ mL) 2 h,"[3]; pH 1.2 HCl buffer, 37° C.",>208 mg/mL
same,Solubility (mg/ mL) 24 h,"[3]; pH 1.2 HCl buffer, 37° C.",>208 mg/mL
same,pH of supernatant at 24 h,[3]; [6],(4.8)
same,Solubility (mg/ mL) 2 h,[3]; [6],>228 mg/mL
same,Solubility (mg/ mL) 24 h,[3]; [6],>228 mg/mL
same,pH of supernatant at 24 h,[3]; [7],(6.7)
same,Solubility (mg/ mL) 2 h,[3]; [7],>229 mg/mL
same,Solubility (mg/ mL) 24 h,[3]; [7],>229 mg/mL
same,purity decrease,"[4]; 40° C./75% RH in an open container, 4 weeks",2.5%
same,Bulk appearance (color change / deliquescence),[4]; 25° C./92.5% RH,deliquescent
same,Bulk appearance (color change / deliquescence),[4]; 40° C./75% RH,deliquescent
same,purity decrease,"[5]; 25° C./92.5% RH in an open container, 4 weeks",0.6%
same,physical stability,[5]; 60° C. in a closed container over 4 weeks,physically stable
same,purity decrease,"[5]; 60° C. in a closed container, 4 weeks",1.1%
same,"Bulk (HPLC) purity, 316 nm","[5]; Solid state, 25° C./92.5% RH, open container, 1 week",99.7%
same,"Bulk (HPLC) purity, 316 nm","[5]; Solid state, 25° C./92.5% RH, open container, 4 weeks",99.2%
same,"Bulk (HPLC) purity, 316 nm","[5]; Solid state, 40° C./75% RH, open container, 1 week",98.7%
same,"Bulk (HPLC) purity, 316 nm","[5]; Solid state, 40° C./75% RH, open container, 4 weeks",97.3%
same,"Bulk (HPLC) purity, 316 nm",[5]; [8],99.3%
same,Bulk (XRPD),[5]; [8],No form change
same,"Bulk (HPLC) purity, 316 nm","[5]; Solid state, 60° C., closed container, 4 weeks",98.7%
